Measured values taken from the supplement of paper PMC7017272.
± gives the standard deviation of the averaged measurements.

Columns and labels:
Details in all cases: treatment time: 3 days
UT-SCC-28 [1] = assay: relative IC50 (midpoint of the fitted curve; maximal inhibition may be below 50%); higher = less potent
Procedure, shortened: (§1)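 Three growth formats were used for HPV-negative HNSCC cell lines in 384-well plates at 500 cells/well: bare plastic, wells coated with Matrigel or Myogel (500 µg/mL), and embedding in Matrigel or Myogel plus rat collagen I. Compounds were added at five 10-fold concentrations, and after 3 days CellTiter-Glo 2.0 luminescence was recorded and normalised to vehicle (0.1% DMSO) and cell-killing control wells. IC50, maximal inhibition and drug sensitivity score came from percent-inhibition dose–response fitting in the FIMM pipeline.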

UT-SCC-40 [2] = assay: as above
Procedure, shortened: as §1

UT-SCC-106A [3] = assay: as above
Procedure, shortened: as §1

UT-SCC-24B [4] = assay: as above
Procedure, shortened: as §1

UT-SCC-8 [5] = assay: as above
Procedure, shortened: as §1

UT-SCC-24A [6] = assay: maximal % inhibition of viability relative to DMSO; higher = stronger effect
Experimental: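 HNSCC cell lines (500 cells/well, 384-well) were cultured on plastic, on top of (2D) or embedded (3D) in Matrigel or human leiomyoma matrix Myogel (500 ug/mL; Myogel 3D mixed with rat collagen I). Cells were treated for 3 days with 5 ten-fold concentrations of each drug, and viability was read by CellTiter-Glo. Viability was normalised to DMSO (0% inhibition) and 100 uM benzethonium chloride (100% inhibition) controls and fitted with the FIMM DSRT pipeline to give IC50 (nM), maximal % inhibition and the drug sensitivity score (DSS). Suffixes _1/_2/_3 on drug names are replicates.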

UT-SCC-24A [7] = assay: drug sensitivity score (DSS); higher = more sensitive
Experimental: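 HNSCC cell lines (500 cells/well, 384-well) were cultured on plastic, on top of (2D) or embedded (3D) in Matrigel or human leiomyoma matrix Myogel (500 ug/mL; Myogel 3D mixed with rat collagen I). Cells were treated for 3 days with 5 ten-fold concentrations of each drug, and viability was read by CellTiter-Glo. Suffixes _1/_2/_3 on drug names are replicates.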

UT-SCC-44 = assay: maximal % inhibition of viability relative to DMSO; higher = stronger effect
Experimental: (§2)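 HNSCC cell lines (500 cells/well, 384-well) were cultured on plastic, on top of (2D) or embedded (3D) in Matrigel or human leiomyoma matrix Myogel (500 ug/mL; Myogel 3D mixed with rat collagen I). Cells were treated for 3 days with 5 ten-fold concentrations of each drug, and viability was read by CellTiter-Glo. Viability was normalised to DMSO and benzethonium chloride controls and fitted with the FIMM DSRT pipeline to give IC50 (nM), maximal % inhibition and DSS. Suffixes _1/_2/_3 are replicates. Only inhibition-mode (IC50) fits are kept.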

UT-SCC-28 [8] = assay: as above
Experimental: as §2

UT-SCC-73 = assay: as above
Experimental: as §2

UT-SCC-42B = assay: as above
Experimental: as §2

UT-SCC-40 [9] = assay: as above
Experimental: as §2

UT-SCC-42A = assay: as above
Experimental: as §2

UT-SCC-81 = assay: as above
Experimental: as §2

UT-SCC-14 = assay: as above
Experimental: as §2

UT-SCC-106A [10] = assay: as above
Experimental: as §2

UT-SCC-24B [11] = assay: as above
Experimental: as §2

UT-SCC-8 [12] = assay: as above
Experimental: as §2

[13] = culture condition: embedded in Matrigel
[14] = culture condition: embedded in Myogel + collagen I
[15] = culture condition: on top of Matrigel
[16] = culture condition: plastic 2D (no matrix)
[17] = culture condition: on top of Myogel

Cc1c(CN2CCN(C(=O)[C@H](C)O)CC2)sc2c(N3CCOCC3)nc(-c3cnc(N)nc3)nc12 [Apitolisib]
relative IC50 (UT-SCC-28 [1]; [13]): 0.33 µM
relative IC50 (UT-SCC-28 [1]; [14]): 1.05 µM
relative IC50 (UT-SCC-28 [1]; [15]): 0.244 µM
relative IC50 (UT-SCC-28 [1]; [16]): 0.352 µM
relative IC50 (UT-SCC-40 [2]; [13]): 1.24 µM
relative IC50 (UT-SCC-40 [2]; [14]): 1.56 µM
relative IC50 (UT-SCC-40 [2]; [15]): 1.52 µM
relative IC50 (UT-SCC-40 [2]; [17]): 1.87 µM
relative IC50 (UT-SCC-40 [2]; [16]): 1.82 µM
relative IC50 (UT-SCC-106A [3]; [13]): 0.336 µM
relative IC50 (UT-SCC-106A [3]; [14]): 0.862 µM
relative IC50 (UT-SCC-106A [3]; [15]): 0.488 µM
relative IC50 (UT-SCC-106A [3]; [17]): 1.47 µM
relative IC50 (UT-SCC-106A [3]; [16]): 0.936 µM
relative IC50 (UT-SCC-24B [4]; [13]): 0.891 µM
relative IC50 (UT-SCC-24B [4]; [14]): 0.736 µM
relative IC50 (UT-SCC-24B [4]; [15]): 0.874 µM
relative IC50 (UT-SCC-24B [4]; [17]): 1.15 µM
relative IC50 (UT-SCC-24B [4]; [16]): 0.85 µM
relative IC50 (UT-SCC-8 [5]; [13]): 1.33 µM
relative IC50 (UT-SCC-8 [5]; [14]): 2.37 µM
relative IC50 (UT-SCC-8 [5]; [15]): 1.38 µM
relative IC50 (UT-SCC-8 [5]; [17]): 1.28 µM
relative IC50 (UT-SCC-8 [5]; [16]): 1.41 µM
maximal % inhibition of viability (UT-SCC-24A [6]; [13]): 90.3 ± 1.6%
maximal % inhibition of viability (UT-SCC-24A [6]; [14]): 85.4 ± 2.3%
maximal % inhibition of viability (UT-SCC-24A [6]; [15]): 87.7 ± 0.2%
maximal % inhibition of viability (UT-SCC-24A [6]; [17]): 83.4 ± 1.9%
maximal % inhibition of viability (UT-SCC-24A [6]; [16]): 88.57 ± 0.29%
drug sensitivity score (UT-SCC-24A [7]; [13]): 12.5 ± 2.4 DSS
drug sensitivity score (UT-SCC-24A [7]; [14]): 13.1 ± 1.9 DSS
drug sensitivity score (UT-SCC-24A [7]; [15]): 13 ± 0.85 DSS
drug sensitivity score (UT-SCC-24A [7]; [17]): 9.97 ± 0.15 DSS
drug sensitivity score (UT-SCC-24A [7]; [16]): 13.5 ± 1.6 DSS
maximal % inhibition of viability (UT-SCC-44; [13]): 57.8 ± 1.6%
maximal % inhibition of viability (UT-SCC-44; [14]): 65.8 ± 3.9%
maximal % inhibition of viability (UT-SCC-44; [15]): 58.2 ± 1.4%
maximal % inhibition of viability (UT-SCC-44; [17]): 65.9 ± 2%
maximal % inhibition of viability (UT-SCC-44; [16]): 63.5 ± 5%
maximal % inhibition of viability (UT-SCC-28 [8]; [13]): 63.5 ± 2.3%
maximal % inhibition of viability (UT-SCC-28 [8]; [14]): 76.8 ± 4.2%
maximal % inhibition of viability (UT-SCC-28 [8]; [15]): 69.97 ± 0.67%
maximal % inhibition of viability (UT-SCC-28 [8]; [16]): 68.4 ± 2.8%
maximal % inhibition of viability (UT-SCC-73; [13]): 84.2 ± 2.6%
maximal % inhibition of viability (UT-SCC-73; [14]): 76.2 ± 4.4%
maximal % inhibition of viability (UT-SCC-73; [15]): 82.4 ± 0.53%
maximal % inhibition of viability (UT-SCC-73; [17]): 79.5 ± 2.6%
maximal % inhibition of viability (UT-SCC-73; [16]): 81.8 ± 2.3%
maximal % inhibition of viability (UT-SCC-42B; [13]): 86.7 ± 1.6%
maximal % inhibition of viability (UT-SCC-42B; [15]): 76.3 ± 2.2%
maximal % inhibition of viability (UT-SCC-42B; [17]): 58.6 ± 2%
maximal % inhibition of viability (UT-SCC-42B; [16]): 64.5 ± 1.8%
maximal % inhibition of viability (UT-SCC-40 [9]; [13]): 89.1 ± 2.1%
maximal % inhibition of viability (UT-SCC-40 [9]; [14]): 78.6 ± 1.7%
maximal % inhibition of viability (UT-SCC-40 [9]; [15]): 87.3 ± 1.2%
maximal % inhibition of viability (UT-SCC-40 [9]; [17]): 64 ± 9.4%
maximal % inhibition of viability (UT-SCC-40 [9]; [16]): 74.7 ± 2.4%
maximal % inhibition of viability (UT-SCC-42A; [13]): 79.9 ± 3.6%
maximal % inhibition of viability (UT-SCC-42A; [14]): 75.8 ± 1.8%
maximal % inhibition of viability (UT-SCC-42A; [15]): 80.1 ± 2.3%
maximal % inhibition of viability (UT-SCC-42A; [17]): 75.2 ± 1.4%
maximal % inhibition of viability (UT-SCC-42A; [16]): 81 ± 1.5%
maximal % inhibition of viability (UT-SCC-81; [13]): 93.5 ± 1.6%
maximal % inhibition of viability (UT-SCC-81; [14]): 81.1 ± 4.5%
maximal % inhibition of viability (UT-SCC-81; [15]): 88.93 ± 0.85%
maximal % inhibition of viability (UT-SCC-81; [17]): 79.9 ± 1.5%
maximal % inhibition of viability (UT-SCC-81; [16]): 82.8 ± 3.6%
maximal % inhibition of viability (UT-SCC-14; [13]): 84.33 ± 0.67%
maximal % inhibition of viability (UT-SCC-14; [14]): 80.8 ± 3%
maximal % inhibition of viability (UT-SCC-14; [15]): 85.5 ± 3.3%
maximal % inhibition of viability (UT-SCC-14; [17]): 79.4 ± 0.92%
maximal % inhibition of viability (UT-SCC-14; [16]): 82.1 ± 3.8%
maximal % inhibition of viability (UT-SCC-106A [10]; [13]): 69.8 ± 1.9%
maximal % inhibition of viability (UT-SCC-106A [10]; [14]): 60.4 ± 6.1%
maximal % inhibition of viability (UT-SCC-106A [10]; [15]): 74.7 ± 0.85%
maximal % inhibition of viability (UT-SCC-106A [10]; [17]): 66 ± 4%
maximal % inhibition of viability (UT-SCC-106A [10]; [16]): 81.2 ± 5%
maximal % inhibition of viability (UT-SCC-24B [11]; [13]): 91.37 ± 0.75%
maximal % inhibition of viability (UT-SCC-24B [11]; [14]): 92.1 ± 2.7%
maximal % inhibition of viability (UT-SCC-24B [11]; [15]): 90.4 ± 1.1%
maximal % inhibition of viability (UT-SCC-24B [11]; [17]): 90.53 ± 0.42%
maximal % inhibition of viability (UT-SCC-24B [11]; [16]): 92.97 ± 0.47%
maximal % inhibition of viability (UT-SCC-8 [12]; [13]): 97.57 ± 0.12%
maximal % inhibition of viability (UT-SCC-8 [12]; [14]): 87.6 ± 4.4%
maximal % inhibition of viability (UT-SCC-8 [12]; [15]): 94.8 ± 1.1%
maximal % inhibition of viability (UT-SCC-8 [12]; [17]): 90.4 ± 1.6%
maximal % inhibition of viability (UT-SCC-8 [12]; [16]): 94 ± 1.2%
